Reference: patent US7259136B2, “Compositions and methods for treating peripheral vascular disease” (Amylin Pharmaceuticals, Inc., priority 1999, dated 2007)
Where no end group is shown, it is not given here.

Columns and labels:
pancreas = conditions: cited from earlier work
[1] = test system: Cardiac Muscle Ischemia and Reperfusion; test: LAD coronary artery occlusion (25 min) and reperfusion (2 h) in anesthetized rats; format: in vivo, Wistar rats
Procedure: Wistar rats were anesthetized with thiopentone sodium. The left anterior descending (LAD) coronary artery was occluded. After 25 minutes of occlusion, reperfusion was allowed for 2 hours. This animal model has been described previously. Zacharowski, et al. […] Br. J. Pharmacol. 128, 945–952.
GLP-1 (1.5 microgram/kg/min) was infused into anesthetized rats (n=10), commencing 10 minutes prior to reperfusion and continuing throughout the 2-hour reperfusion. Controls were sham operated with no occlusion (n=7), LAD occlusion+reperfusion+administration of saline (n=12), and LAD occlusion and reperfusion with vehicle (10 mM sodium acetate, 5.05% D-mannitol, pH 4.5, 1.5 mL/kg/hour; n=10).
Following reperfusion, the coronary artery was reoccluded, and Evans Blue dye (4 ml, 2% w/v) was injected into the left ventricle of the heart via a right carotid artery cannula. Evans Blue stains the perfused myocardium, while the occluded vascular bed remains uncolored. Animals were euthanized by anesthetic overdose and the hearts were removed for examination. Hearts were sectioned and the right ventricular wall was removed. The area at risk (pink) was separated from the non-ischemic tissue (blue). The area at risk (pink) was then cut into smaller pieces and stained with p-nitroblue tetrazolium (NBT; 0.5 mg/ml) for 20 min. at 37° C. In the presence of intact dehydrogenase enzyme systems (viable myocardium), NBT forms a dark blue compound. Areas of necrosis lack the enzyme and remain unstained. Tissue was separated according to staining and weighed to determine infarct size as a percentage of the area at risk.

[2] = test system: Cardiac Muscle Ischemia and Reperfusion; test: Left circumflex coronary occlusion (10 min) and reperfusion in dogs; format: in vivo
Procedure: Two dogs were studied at baseline before, during, and for 6 hours after a 10-minute complete left circumflex coronary (LCx) occlusion. Each dog underwent occlusion/reperfusion in the presence and absence of GLP-1 infusion for […], beginning 1 minute prior to reperfusion.

| Substance | stimulation of production or release of insulin from the pancreas (pancreas) | infarct size as a percentage of the area at risk ([1]; GLP-1 1.5 microgram/kg/min infusion from 10 min prior to reperfusion throughout 2-hour reperfusion, n=10) | reduction in infarct size compared with the vehicle group ([1]; GLP-1 1.5 microgram/kg/min infusion, p<0.05) | hemodynamics ([1]; GLP-1 infusion) | stunning period ([2]; dogs, GLP-1 during reperfusion after subcritical ischemia) | recovery of ventricular wall regional dysfunction ([2]; two dogs, GLP-1 infusion for 24 hours beginning 1 minute prior to reperfusion, after 10 minutes of coronary artery occlusion) |
| --- | --- | --- | --- | --- | --- | --- |
| GLP-1(9-36)amide: DPP IV inactivation product of GLP-1(7-36)amide, SEQ ID NO:6 (EGTFTSDVSSYLEGQAAKEFIAWLVKGR-NH2) | do not stimulate production or release of insulin |  |  |  |  |  |
| GLP-1(9-37): DPP IV inactivation product of GLP-1(7-37), SEQ ID NO:5 (EGTFTSDVSSYLEGQAAKEFIAWLVKGRG; mammalian) | do not stimulate production or release of insulin |  |  |  |  |  |
| glucagon-like peptide-1 [GLP-1] |  | 31+/−4 % of the area at risk | approximately 33% | significantly improved hemodynamics | significantly reduced the stunning period | enhanced the recovery of ventricular wall regional dysfunction |
